According to patent publication US20180251431A1 (VERTEX PHARMACEUTICALS INCORPORATED, priority 2016, published 2018):

system: HEK293 cells; experiment: HEK293 VLCFA-LPC IC50 determination (13C-labeled C26:0 LPC by UHPLC/MS); assay type: cell-based, human; details: Homo sapiens, HEK293, HEK293 cells; average of one or more replicates; read-out: Average HEK293 IC50
Protocol: HEK293 cells were treated with compounds, such as those listed in Tables A-E of Example 1, using the representative manual protocols described below. The protocols below were also adapted to a semi-automated protocol using standard methods in the art.
Cell Culture Growth Conditions:
HEK293 cells were maintained in FreeStyle F17 media (Gibco # A13835) supplemented with PenStrep (1%, Gibco #15070-063), Glutamax (2%, Gibco #35050-061), and Pluronic (0.1%, Gibco #24040-032) (“supplemented media”). Suspension cultures were grown in disposable Erlenmeyer flasks at about 120 rpm, 37° C., 5% CO2, and 80% humidity. Cell densities were kept between about 0.5 and 3 million cells per mL, in about 50-200 mL per flask.
Treatment of Cells with Compounds Provided Herein:
The cells were treated with compounds using either a total of 900 uL cell media volume (high-volume assay) or a total of 200 uL cell media volume (low-volume assay). In the high volume assay, 450 μL of supplemented media plus 13C-acetate (1.0 mg/mL, Sigma Aldrich #282014) were added to 0.5 μL of a compound (such as those in Tables A-E) in DMSO in a polypropylene v-bottom plate (Costar #3363) in 1 of 3 dilution schemes. The contents of each well were mixed and transferred to a sterile polypropylene deep-well v-bottom plate (Costar #3960). 450 μL of cultured HEK293 cells in supplemented media at a density of 1.0 million cells/mL was added to each well. In the low volume assay, 100 μL of supplemented media plus 13C-acetate (1.0 mg/mL, Sigma Aldrich #282014) were added to either 0.1 μL or 1.0 uL of a compound (such as those in Tables A-E) in DMSO in a polypropylene v-bottom plate (Costar #3363) in 1 of 3 dilution schemes. 100 μL of cultured HEK293 cells in supplemented media at a density of 1.0 million cells/mL was added to each well. The high volume and low volume plates were sealed with either AirPore Tape Sheets (Qiagen #19571) or Duetz plate covers to control evaporation and placed into a shaking incubator at 225 rpm, 37° C., 5% CO2, and 80% humidity for 48 hours. For both the high and low volume assays the 3 dilution schemes used were as follows:
Following incubation, treated cells were harvested by centrifugation at 1690×g for 10 minutes. In the high volume assay 200 uL treated cells were transferred to a polypropylene v-bottom plate (Costar #3363) prior to centrifugation. In the low volume assay the incubation plate was centrifuged directly, without a transfer step. The supernatant was then discarded and the analytes were extracted using 1 of 2 different extraction schemes. In the first scheme, the cell pellet was visibly broken up by mixing the cell pellet up and down in 100 μL of hexane/isopropanol (60:40) 20 times. The resulting mixture was transferred to a 0.45 μm Durapore membrane (Millipore #MSH VN4510) atop a polypropylene v-bottom plate (Costar #3363) and filtered by centrifugation at 1690×g for 5 minutes. 120 μL of n-butanol containing 10 nM C13:0 lysophosphatidylcholine was added to the filtrate as an injection control standard, then the entire volume was transferred to a new Durapore membrane/v-bottom plate. In the second scheme, the cell pellet was visibly broken up by mixing the cell pellet up and down in 180 μL of methanol containing 10 nM C13:0 lysophosphatidylcholine 20 times. The resulting mixture was transferred to a 0.45 μm Durapore membrane (Millipore #MSH VN4510) atop a polypropylene v-bottom plate and filtered by centrifugation at 1690×g for 5 minutes. In both schemes, the plates were then sealed with pierceable capmats (Micronic MP53017) and stored at −20 OC until analyzed.
UHPLC/Mass Spectrometry Readout:
The filtered organic extraction was analyzed with a 1290 Agilent Infinity Series UHPLC coupled to an ABI Sciex QTrap 6500 mass spectrometer. […]

Row | SMILES | IC50
1 | COc1ccc(CC(=O)Nc2ccn(-c3ccccc3)n2)cc1C [Compound 62, 2-(4-methoxy-3-methyl-phenyl)-N-(1-phenylpyrazol-3-yl)acetamide] | 3700 nM
2 | COc1ccc(CC(=O)Nc2ccn(-c3ccccc3)n2)cc1F [Compound 63, 2-(3-fluoro-4-methoxy-phenyl)-N-(1-phenylpyrazol-3-yl)acetamide] | > 5000 nM
3 | O=C(Cc1ccc(F)c(Cl)c1)Nc1ccn(-c2ccccc2)n1 [Compound 64, 2-(3-chloro-4-fluoro-phenyl)-N-(1-phenylpyrazol-3-yl)acetamide] | > 5000 nM
4 | COc1ccc(CC(=O)Nc2ccn(-c3ccccc3)n2)cc1OC [Compound 66, 2-(3,4-dimethoxylphenyl)-N-(1-phenylpyrazol-3-yl)acetamide] | 2800 nM
5 | O=C(Cc1ccc(Cl)c(Cl)c1)Nc1ccn(-c2ccccc2)n1 [Compound 68, 2-(3,4-dichlorophenyl)-N-(1-phenylpyrazol-3-yl)acetamide] | > 5000 nM
6 | O=C(Cc1cccc(Cl)c1Cl)Nc1ccn(-c2ccccc2)n1 [Compound 69, 2-(2,3-dichlorophenyl)-N-(1-phenylpyrazol-3-yl)acetamide] | 5000 nM
7 | O=C(Cc1c(Cl)cccc1Cl)Nc1ccn(-c2ccccc2)n1 [Compound 70, 2-(2,6-dichlorophenyl)-N-(1-phenylpyrazol-3-yl)acetamide] | > 2000 nM
8 | O=C(Cc1ccc(F)c(C(F)(F)F)c1)Nc1ccn(-c2ccccc2)n1 [Compound 71, 2-[4-fluoro-3-(trifluoromethyl)phenyl]-N-(1-phenylpyrazol-3-yl)acetamide] | > 5000 nM
9 | O=C(Cc1cc(F)cc(C(F)(F)F)c1)Nc1ccn(-c2ccccc2)n1 [Compound 72, 2-[3-fluoro-5-(trifluoromethyl)phenyl]-N-(1-phenylpyrazol-3-yl)acetamide] | > 5000 nM
10 | O=C(Cc1cc(C(F)(F)F)cc(C(F)(F)F)c1)Nc1ccn(-c2ccccc2)n1 [Compound 73, 2-[3,5-bis(trifluoromethyl)phenyl]-N-(1-phenylpyrazol-3-yl)acetamide] | > 5000 nM
11 | O=C(Cc1ccc(F)c(F)c1F)Nc1ccn(-c2ccccc2)n1 [Compound 74, N-(1-phenylpyrazol-3-yl)-2-(2,3,4-trifluorophenyl)acetamide] | > 5000 nM
12 | O=C(Cc1cc(F)c(F)cc1F)Nc1ccn(-c2ccccc2)n1 [Compound 75, N-(1-phenylpyrazol-3-yl)-2-(2,4,5-trifluorophenyl)acetamide] | > 2000 nM
13 | O=C(Cc1c(F)cc(F)cc1F)Nc1ccn(-c2ccccc2)n1 [Compound 76, N-(1-phenylpyrazol-3-yl)-2-(2,4,6-trifluorophenyl)acetamide] | 72 nM
14 | Cc1ccc(C(C)C(=O)Nc2ccn(-c3ccccc3)n2)cc1 (centres unmarked) [Compound 77, N-(1-phenylpyrazol-3-yl)-2-(p-tolyl)propanamide] | 3300 nM
15 | CC(C)Cc1ccc(C(C)C(=O)Nc2ccn(-c3ccccc3)n2)cc1 (centres unmarked) [Compound 78, 2-(4-isobutylphenyl)-N-(1-phenylpyrazol-3-yl)propanamide] | > 5000 nM
16 | O=C(Nc1ccn(-c2ccccc2)n1)C1(c2ccc(Cl)cc2)CCCC1 [Compound 79, 1-(4-chlorophenyl)-N-(1-phenylpyrazol-3-yl)cyclopentanecarboxamide] | > 5000 nM
17 | CC(C(=O)Nc1ccn(-c2ccccc2)n1)c1ccccc1 (centres unmarked) [Compound 80, 2-phenyl-N-(1-phenylpyrazol-3-yl)propanamide] | 47 nM
18 | O=C(Nc1ccn(-c2nccs2)n1)C1(c2ccccc2)CC1 [Compound 81, 1-phenyl-N-(1-thiazol-2-ylpyrazol-3-yl)cyclopropanecarboxamide] | 11 nM
19 | O=C(Nc1ccn(-c2ncccc2F)n1)C1(c2ccccc2)CC1 [Compound 82, N-[1-(3-fluoro-2-pyridyl)pyrazol-3-yl]-1-phenyl-cyclopropanecarboxamide] | 190 nM

Row | SMILES | IC50
20 | O=C(Cc1ccccc1)Nc1ccn(-c2ccnc(Cl)c2)n1 [Compound 83, N-(1-(2-chloropyridin-4-yl)-1H-pyrazol-3-yl)-2-phenylacetamide] | 600 nM
21 | O=C(Nc1ccn(-c2ccnc(Cl)c2)n1)C1(c2ccccc2)CC1 [Compound 84, N-(1-(2-chloropyridin-4-yl)-1H-pyrazol-3-yl)-1-phenylcyclopropane-1-carboxamide] | 61 nM
22 | O=C(Nc1ccn(-c2cncnc2)n1)C1(c2ccccc2F)CC1 [Compound 85, 1-(2-fluorophenyl)-N-(1-pyrimidin-5-ylpyrazol-3-yl)cyclopropanecarboxamide] | 95 nM
23 | O=C(Cc1ccccc1)Nc1ccn(-c2ccccn2)n1 [Compound 86, 2-phenyl-N-[1-(2-pyridyl)pyrazol-3-yl]acetamide] | 680 nM
24 | O=C(Cc1ccc(F)cc1)Nc1ccn(-c2ncccc2F)n1 [Compound 88, 2-(4-fluorophenyl)-N-[1-(3-fluoro-2-pyridyl)pyrazol-3-yl]acetamide] | > 5000 nM
25 | O=C(Cc1ccccc1)Nc1ccn(-c2nccs2)n1 [Compound 89, 2-phenyl-N-(1-thiazol-2-ylpyrazol-3-yl)acetamide] | 340 nM
26 | O=C(Cc1ccccc1F)Nc1ccn(-c2nccs2)n1 [Compound 90, 2-(2-fluorophenyl)-N-(1-thiazol-2-ylpyrazol-3-yl)acetamide] | 350 nM
27 | O=C(Cc1ccc(F)cc1)Nc1ccn(-c2nccs2)n1 [Compound 91, 2-(4-fluorophenyl)-N-(1-thiazol-2-ylpyrazol-3-yl)acetamide] | 1900 nM
28 | O=C(Nc1ccn(-c2nccs2)n1)C1(c2ccccc2F)CC1 [Compound 92, 1-(2-fluorophenyl)-N-(1-thiazol-2-ylpyrazol-3-yl)cyclopropanecarboxamide] | 38 nM
29 | O=C(Cc1ccccc1)Nc1ccn(-c2ncccc2F)n1 [Compound 93, N-[1-(3-fluoro-2-pyridyl)pyrazol-3-yl]-2-phenyl-acetamide] | > 10000 nM
30 | O=C(Cc1ccccc1F)Nc1ccn(-c2ncccc2F)n1 [Compound 94, 2-(2-fluorophenyl)-N-[1-(3-fluoro-2-pyridyl)pyrazol-3-yl]acetamide] | > 10000 nM
31 | O=C(Nc1ccn(-c2ncccc2F)n1)C1(c2ccccc2F)CC1 [Compound 95, 1-(2-fluorophenyl)-N-[1-(3-fluoro-2-pyridyl)pyrazol-3-yl]cyclopropanecarboxamide] | 390 nM
32 | O=C(Cc1ccccc1)Nc1ccn(-c2cncnc2)n1 [Compound 96, 2-phenyl-N-(1-pyrimidin-5-ylpyrazol-3-yl)acetamide] | 2400 nM
33 | O=C(Cc1ccc(F)cc1)Nc1ccn(-c2cncnc2)n1 [Compound 97, 2-(4-fluorophenyl)-N-(1-pyrimidin-5-ylpyrazol-3-yl)acetamide] | > 10000 nM
34 | O=C(Nc1ccn(-c2cncnc2)n1)C1(c2ccccc2)CC1 [Compound 98, 1-phenyl-N-(1-pyrimidin-5-ylpyrazol-3-yl)cyclopropanecarboxamide] | 110 nM
35 | O=C(Cc1ccccc1)Nc1ccn(-c2ccncc2)n1 [Compound 99, 2-phenyl-N-[1-(4-pyridyl)pyrazol-3-yl]acetamide] | 760 nM
36 | O=C(Nc1ccn(-c2ccncc2)n1)C1(c2ccccc2)CC1 [Compound 100, 1-phenyl-N-[1-(4-pyridyl)pyrazol-3-yl]cyclopropanecarboxamide] | 33 nM
37 | O=C(Nc1ccn(-c2ccncc2)n1)C1(c2ccccc2F)CC1 [Compound 101, 1-(2-fluorophenyl)-N-[1-(4-pyridyl)pyrazol-3-yl]cyclopropanecarboxamide] | 75 nM
38 | O=C(Cc1ccc(F)cc1)Nc1ccn(-c2ccncc2)n1 [Compound 102, 2-(4-fluorophenyl)-N-[1-(4-pyridyl)pyrazol-3-y]+acetamide] | 3600 nM
